Measurements as given in patent US11261201B2 (priority 2018, dated 2022).
Values after ≈ are worked out from the molar mass of the structure shown. Where a name gives a salt, the structure may show the parent alone. Read-outs that look alike come from different tables or passages of the source.

Legend:
[1] = tested on: H37RvMA; assay: Tuberculosis Alamar Blue/Resazurin assay (MIC); assay type: cell-based; conditions: Mycobacterium tuberculosis, H37RV, read-out: WT H37Rv MTB Activity
[2] = tested on: E. coli; assay: Gram negative MIC protocol (OD600, LB, 24 h); conditions: Escherichia coli
Method: (§1) Overnight bacterial cultures were grown in LB with no added antibiotics at 37° C. with shaking. A 1:1000 dilution of these cultures into LB was exposed to concentration gradients of compounds in 96-well plates (100 μL per well assay volume). Resulting plates were incubated at 37° C. for 24 h without shaking, and OD600 was measured at the end of the incubation. MICs were determined as the lowest concentrations at which OD600 remained at baseline.

[3] = tested on: A. baumannii; assay: Gram negative MIC protocol (OD600, LB, 24 h); conditions: Acinetobacter baumannii
Method: as §1

[4] = read-out: MIC E. coli delta-TolC LB Media, E. coli delta-TolC, LB media, OD600
[5] = read-out: MIC WT E. coli LB Media, WT E. coli, LB media, OD600
[6] = read-out: MIC A. baumannii LB Media, A. baumannii, LB media, 24 h, OD600
[7] = read-out: MIC E. coli delta-TolC LB Media, E. coli delta-TolC strain, LB media, 24 h, OD600
[8] = read-out: MIC WT E. coli LB Media, wild-type E. coli, LB media, 24 h, OD600
[9] = read-out: MIC A. baumannii LB Media

Row | SMILES | MIC ([1]; WT H37Rv MTB) [µM] | MIC [2, 4] [µM] | MIC [2, 5] [µM] | MIC [3, 6] [µM] | MIC [2, 7] [µM] | MIC [2, 8] [µM] | MIC [1] [µM] | MIC [3, 9] [µM]
1 | FC(F)(F)C(CC1CCCCC1)NCc1ccccc1 (stereo not shown) [B177] | > 150 | > 300 | > 300 | > 300 |  |  |  | 
2 | CC(CNCc1ccccc1)C1CCCC1 (stereo not shown) [B5] | > 150 | > 150 | > 150 | > 150 |  |  |  | 
3 | c1ccc(CNCCc2cccc3c2NCCC3)cc1 [B105] | 91 (≈ 24.2 µg/mL) | > 150 | > 150 | > 150 |  |  |  | 
4 | CCCC(C)NCc1ccccc1 (stereo not shown) [B16] | > 150 | > 150 | > 150 | > 150 |  |  |  | 
5 | Cc1noc(COc2ccccc2CNC(C)CC2CCCCC2)n1 (stereo not shown) [B278] | > 150 |  |  | > 150 | 12 (≈ 4.12 µg/mL) | > 150 |  | 
6 | CC(CC1CCCCC1)NCc1ccccc1OCC1CC2CCC1C2 (stereo not shown) [B386, N-(2-(bicyclo[2.2.1]heptan-2-ylmethoxy)benzyl)-1-cyclohexylpropan-2-amine] | 20.2 (≈ 7.18 µg/mL) |  |  | 55 (≈ 19.6 µg/mL) | 5 (≈ 1.78 µg/mL) | > 150 |  | 
7 | CC(CC1CCCCC1)NCc1cccc2ccn(CCO)c12 (stereo not shown) [B442, 2-(7-(((1-cyclohexylpropan-2-yl)amino)methyl)-1H-indol-1-yl)ethan-1-ol hydrochloride] | 150 | 150 | > 150 | > 150 |  |  |  | 
8 | C[C@@H](CC1CCCCC1)NCc1ccccc1 [B94] |  | 7 (≈ 1.62 µg/mL) | 17 (≈ 3.93 µg/mL) |  |  |  | > 150 | 91 (≈ 21.1 µg/mL)
9 | FC(F)(F)c1ccc(CC2(NCc3ccccc3)CC2)cc1 [B96] |  | 90 (≈ 27.5 µg/mL) | > 150 | > 150 |  |  | > 150 | 
10 | Cc1cc(COc2ccccc2CNC(C)CC2CCCCC2)on1 (stereo not shown) [B241] | > 150 |  |  | > 150 | 4 (≈ 1.37 µg/mL) | 150 (≈ 51.4 µg/mL) |  | 
11 | c1ccc(CNCCC23CC4CC(CC(C4)C2)C3)cc1 [B104] | 55 (≈ 14.8 µg/mL) | 91 (≈ 24.5 µg/mL) | > 150 | > 150 |  |  |  | 
12 | COCCCOc1ccccc1CNC(C)CC1CCCCC1 (stereo not shown) [B312] | > 150 |  |  | > 150 | 7 (≈ 2.24 µg/mL) | > 150 |  | 
13 | c1ccc(CNCCc2ccc3c(c2)OCO3)cc1 [B154] |  | > 150 | > 150 |  |  |  | > 150 | > 150
14 | CC(CC1CCCCC1)NCc1ccccc1CS(=O)(=O)NCC1CCCO1 (stereo not shown) [B433, 1-(2-(((1-cyclohexylpropan-2-yl)amino)methyl)phenyl)-N-((tetrahydrofuran-2-yl)methyl)methanesulfonamide] | > 150 | 3 (≈ 1.23 µg/mL) | 150 (≈ 61.3 µg/mL) | 150 (≈ 61.3 µg/mL) |  |  |  | 
15 | O=C(O)C(CC1CCCCC1)NCc1ccccc1 (stereo not shown) [B180] | > 150 | > 300 | > 300 | > 300 |  |  |  | 
16 | Cc1nc(COc2ccccc2CNC(C)CC2CCCCC2)no1 (stereo not shown) [B334] | > 150 |  |  | > 150 | 7 (≈ 2.4 µg/mL) | > 150 |  | 
17 | C1=Nc2cccc(CCNCc3ccccc3)c2C1 [B57] |  | > 150 | > 150 |  |  |  | > 150 | > 150
18 | COCc1cccc(CNCCC2CCCCC2)c1 [B350] | > 150 |  |  | > 150 | > 150 | > 150 |  | 
19 | Fc1ccc(CC2(NCc3ccccc3)CC2)cc1 [B97] |  | > 150 | > 150 | > 150 |  |  | > 150 | 
20 | CC(NCc1ccccc1)C12CCC(CC1)CC2 (stereo not shown) [B87] | > 150 | > 150 | 300 (≈ 73 µg/mL) | > 150 |  |  |  | 

Row | SMILES | MIC ([1]; WT H37Rv MTB) [µM] | MIC [2, 4] [µM] | MIC [2, 5] [µM] | MIC [3, 6] [µM] | MIC [2, 7] [µM] | MIC [2, 8] [µM] | MIC [1] [µM] | MIC [3, 9] [µM]
21 | c1cc(CNCCC2CCCCC2)c2cc[nH]c2c1 [B357] | 91 (≈ 23.3 µg/mL) |  |  | 91 (≈ 23.3 µg/mL) | 20 (≈ 5.13 µg/mL) | 150 (≈ 38.5 µg/mL) |  | 
22 | O=C1CCc2ccccc2CN1CCC1CCCCC1 [B425, 2-(2-cyclohexylethyl)-1,2,4,5-tetrahydro-3H-benzo[c]azepin-3-one] | > 150 | 33 (≈ 8.96 µg/mL) | > 150 | > 150 |  |  |  | 
23 | FC1(F)C2CCCCC21CCNCc1ccccc1 (stereo not shown) [B183] | > 150 | > 300 | > 300 | > 300 |  |  |  | 
24 | OC1(CCNCc2ccccc2)CCCCC1Cl (stereo not shown) [B188] | > 150 | > 300 | > 300 | > 300 |  |  |  | 
25 | c1ccc(CNCC2CCOc3ccccc32)cc1 (stereo not shown) [B23] | > 150 | > 150 | > 150 | > 150 |  |  |  | 
26 | CC(CC1CCCCC1)NCc1ccccc1OC1CCC(F)(F)CC1 (stereo not shown) [B396, 1-cyclohexyl-N-(2-((4,4-difluorocyclohexyl)oxy)benzyl)propan-2-amine] | 55.1 (≈ 20.1 µg/mL) |  |  | 150 (≈ 54.8 µg/mL) | 3 (≈ 1.1 µg/mL) | 150 (≈ 54.8 µg/mL) |  | 
27 | COC(=O)c1occc1COc1ccccc1CNC(C)CC1CCCCC1 (stereo not shown) [B265] | 91 (≈ 35.1 µg/mL) |  |  | 91 (≈ 35.1 µg/mL) | 3 (≈ 1.16 µg/mL) | 150 (≈ 57.8 µg/mL) |  | 
28 | CC(C)CNCc1ccccc1 [B136] | > 150 | > 150 | > 150 | > 150 |  |  |  | 
29 | C1=C(CCNCc2cccs2)CCCC1 [B152] | > 150 | > 150 | > 150 | > 150 |  |  |  | 
30 | CC(CC1CCCCC1)NCc1ccccc1OC1CC2CCC1C2 (stereo not shown) [B390, N-(2-(bicyclo[2.2.1]heptan-2-yloxy)benzyl)-1-cyclohexylpropan-2-amine] | 20.2 (≈ 6.9 µg/mL) |  |  | 55 (≈ 18.8 µg/mL) | 3 (≈ 1.02 µg/mL) | 150 (≈ 51.2 µg/mL) |  | 
31 | c1ccc(CNCCc2cccc3cccnc23)cc1 [B42] | > 150 | > 150 | > 150 | > 150 |  |  |  | 
32 | O=C1Cc2ccccc2CN1CCC1CCOCC1 [B430, 2-(2-(tetrahydro-2H-pyran-4-yl)ethyl)-1,4-dihydroisoquinolin-3(2H)-one] | 55.1 (≈ 14.3 µg/mL) | > 150 | > 150 | > 150 |  |  |  | 
33 | CC(CC1CCCCC1)NCc1ccccc1OC1C2CC3CC(C2)CC1C3 [B404, N-(2-(((1R,3S,5r,7r)-adamantan-2-yl)oxy)benzyl)-1-cyclohexylpropan-2-amine] | 20.2 (≈ 7.71 µg/mL) | 7 (≈ 2.67 µg/mL) | > 150 | 150 (≈ 57.2 µg/mL) |  |  |  | 
34 | CNC(=O)COc1ccccc1CNC(C)CC1CCCCC1 (stereo not shown) [B243] | > 150 |  |  | > 150 | 12 (≈ 3.82 µg/mL) | > 150 |  | 
35 | Cc1ccc(COc2ccccc2CNC(C)CC2CCCCC2)cc1 (stereo not shown) [B460, 1-cyclohexyl-N-(2-((4-methylbenzyl)oxy)benzyl)propan-2-amine] | 10 (≈ 3.52 µg/mL) | < 1 | 33 (≈ 11.6 µg/mL) | 33 (≈ 11.6 µg/mL) |  |  |  | 
36 | CC(CC1CCCCC1)NCc1cccc2ccn(C)c12 (stereo not shown) [B441, 1-cyclohexyl-N-((1-methyl-1H-indol-7-yl)methyl)propan-2-amine hydrochloride] | 33.4 | 91 | > 150 | > 150 |  |  |  | 
37 | c1ccc(-c2ccc3ccccc3c2)c(CNCCC2CCCCC2)c1 [B234, 2-cyclohexyl-N-(2-(naphthalen-2-yl)benzyl)ethanamine hydrochloride] | 55 |  |  | 31 | 10 | > 300 |  | 
38 | Fc1cc(CCNCc2ccccc2)c2c(c1)COCO2 [B21] | > 150 | > 150 | > 150 | > 150 |  |  |  | 
39 | COC(=O)c1cccc(CNCCC2CCCCC2)c1 [B349] | > 150 |  |  | > 150 | > 150 | > 150 |  | 
40 | OC(CNCc1ccccc1)c1ccc2ccccc2c1 (stereo not shown) [B138] | > 150 | > 150 | > 150 | > 150 |  |  |  | 
